{
  "source": "ChEMBL document CHEMBL4507296",
  "about": "(2021)",
  "key": {"[1]": {"biological_target": "Cyclin-dependent kinase 15 (Homo sapiens) (UniProt Q96Q40)", "conditions": "Compound concentration 1000.0 nM"}, "[2]": {"biological_target": "STE20-like serine/threonine-protein kinase (Homo sapiens) (UniProt Q9H2G2)", "sequence (Q9H2G2 whole entry, looked up)": "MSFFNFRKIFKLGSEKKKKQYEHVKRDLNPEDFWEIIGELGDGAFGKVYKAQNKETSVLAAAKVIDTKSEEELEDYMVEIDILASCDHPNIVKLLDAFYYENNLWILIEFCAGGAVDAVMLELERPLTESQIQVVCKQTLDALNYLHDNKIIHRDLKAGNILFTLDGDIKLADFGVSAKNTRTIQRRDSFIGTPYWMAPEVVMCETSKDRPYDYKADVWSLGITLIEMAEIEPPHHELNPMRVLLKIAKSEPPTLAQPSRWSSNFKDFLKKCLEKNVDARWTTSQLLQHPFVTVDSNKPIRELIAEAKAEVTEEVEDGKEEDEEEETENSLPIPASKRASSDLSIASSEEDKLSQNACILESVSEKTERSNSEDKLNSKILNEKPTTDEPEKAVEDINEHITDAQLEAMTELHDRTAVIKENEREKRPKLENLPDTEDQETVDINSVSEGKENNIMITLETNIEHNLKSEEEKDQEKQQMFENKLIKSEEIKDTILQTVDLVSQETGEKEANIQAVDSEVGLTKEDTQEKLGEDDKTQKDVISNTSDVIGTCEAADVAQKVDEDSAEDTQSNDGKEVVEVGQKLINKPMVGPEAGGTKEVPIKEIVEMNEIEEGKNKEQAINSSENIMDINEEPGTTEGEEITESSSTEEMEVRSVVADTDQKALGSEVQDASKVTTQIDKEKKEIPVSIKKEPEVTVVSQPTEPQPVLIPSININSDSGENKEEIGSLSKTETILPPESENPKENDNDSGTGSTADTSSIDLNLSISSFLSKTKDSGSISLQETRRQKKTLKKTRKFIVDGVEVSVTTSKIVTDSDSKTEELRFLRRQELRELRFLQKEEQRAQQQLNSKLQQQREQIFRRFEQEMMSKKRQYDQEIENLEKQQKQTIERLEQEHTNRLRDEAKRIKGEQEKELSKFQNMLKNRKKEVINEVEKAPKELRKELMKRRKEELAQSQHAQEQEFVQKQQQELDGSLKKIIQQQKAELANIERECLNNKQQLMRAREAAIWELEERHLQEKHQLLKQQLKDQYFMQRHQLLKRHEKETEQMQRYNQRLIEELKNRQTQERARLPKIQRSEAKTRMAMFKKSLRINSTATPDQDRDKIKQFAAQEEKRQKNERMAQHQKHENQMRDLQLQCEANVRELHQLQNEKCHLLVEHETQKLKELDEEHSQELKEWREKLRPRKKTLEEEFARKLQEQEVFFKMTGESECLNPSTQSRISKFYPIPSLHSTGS", "conditions": "Compound concentration 1000.0 nM"}, "[3]": {"biological_target": "Aurora kinase A (Homo sapiens) (UniProt O14965)", "conditions": "Compound concentration 1000.0 nM"}, "[4]": {"biological_target": "Mitogen-activated protein kinase kinase kinase 6 (Homo sapiens) (UniProt O95382)", "conditions": "Compound concentration 1000.0 nM"}, "Rattus norvegicus": {"species": "Rattus norvegicus", "conditions": "Compound concentration 10.0 uM"}, "[5]": {"biological_target": "Platelet-derived growth factor receptor alpha (Homo sapiens) (UniProt P16234)", "conditions": "Compound concentration 1000.0 nM"}, "[6]": {"biological_target": "High affinity choline transporter 1 (Homo sapiens) (UniProt Q9GZV3)", "experiment": "Choline transporter 1 (human) CEREP ligand profiling", "conditions": "Compound concentration 10.0 uM"}, "[7]": {"biological_target": "Serine/threonine-protein kinase VRK2 (Homo sapiens) (UniProt Q86Y07)", "conditions": "Compound concentration 1000.0 nM"}, "[8]": {"biological_target": "Alpha-1D adrenergic receptor (Homo sapiens) (UniProt P25100)", "conditions": "Compound concentration 10.0 uM"}, "[9]": {"system": "Receptor-type tyrosine-protein kinase FLT3 (Homo sapiens), P36888 [D835Y]", "conditions": "Compound concentration 1000.0 nM"}, "[10]": {"biological_target": "Mitogen-activated protein kinase kinase kinase 4 (Homo sapiens) (UniProt Q9Y6R4)", "conditions": "Compound concentration 1000.0 nM"}, "[11]": {"biological_target": "Receptor-type tyrosine-protein kinase FLT3 (Homo sapiens) (UniProt P36888)", "conditions": "Compound concentration 1000.0 nM"}, "[12]": {"biological_target": "Uncharacterized serine/threonine-protein kinase SBK3 (Homo sapiens) (UniProt P0C264)", "sequence (P0C264 whole entry)": "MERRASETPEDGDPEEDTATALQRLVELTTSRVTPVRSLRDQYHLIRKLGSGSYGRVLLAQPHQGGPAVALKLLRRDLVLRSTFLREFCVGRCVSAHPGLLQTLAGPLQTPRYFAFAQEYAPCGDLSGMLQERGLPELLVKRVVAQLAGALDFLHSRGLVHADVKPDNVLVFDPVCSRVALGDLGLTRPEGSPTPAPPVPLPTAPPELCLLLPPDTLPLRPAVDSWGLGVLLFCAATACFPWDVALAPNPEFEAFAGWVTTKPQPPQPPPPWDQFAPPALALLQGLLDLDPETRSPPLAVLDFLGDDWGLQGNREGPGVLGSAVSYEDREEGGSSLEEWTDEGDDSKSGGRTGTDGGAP", "conditions": "Compound concentration 1000.0 nM"}, "[13]": {"biological_target": "Cyclin-dependent kinase 2 (Homo sapiens) (UniProt P24941)", "conditions": "Compound concentration 1000.0 nM"}, "[14]": {"biological_target": "SNF-related serine/threonine-protein kinase (Homo sapiens) (UniProt Q9NRH2)", "conditions": "Compound concentration 1000.0 nM"}, "[15]": {"system": "Tyrosine-protein kinase ABL1 (Homo sapiens), P00519 [F317L]", "sequence (P00519 whole entry F317L)": "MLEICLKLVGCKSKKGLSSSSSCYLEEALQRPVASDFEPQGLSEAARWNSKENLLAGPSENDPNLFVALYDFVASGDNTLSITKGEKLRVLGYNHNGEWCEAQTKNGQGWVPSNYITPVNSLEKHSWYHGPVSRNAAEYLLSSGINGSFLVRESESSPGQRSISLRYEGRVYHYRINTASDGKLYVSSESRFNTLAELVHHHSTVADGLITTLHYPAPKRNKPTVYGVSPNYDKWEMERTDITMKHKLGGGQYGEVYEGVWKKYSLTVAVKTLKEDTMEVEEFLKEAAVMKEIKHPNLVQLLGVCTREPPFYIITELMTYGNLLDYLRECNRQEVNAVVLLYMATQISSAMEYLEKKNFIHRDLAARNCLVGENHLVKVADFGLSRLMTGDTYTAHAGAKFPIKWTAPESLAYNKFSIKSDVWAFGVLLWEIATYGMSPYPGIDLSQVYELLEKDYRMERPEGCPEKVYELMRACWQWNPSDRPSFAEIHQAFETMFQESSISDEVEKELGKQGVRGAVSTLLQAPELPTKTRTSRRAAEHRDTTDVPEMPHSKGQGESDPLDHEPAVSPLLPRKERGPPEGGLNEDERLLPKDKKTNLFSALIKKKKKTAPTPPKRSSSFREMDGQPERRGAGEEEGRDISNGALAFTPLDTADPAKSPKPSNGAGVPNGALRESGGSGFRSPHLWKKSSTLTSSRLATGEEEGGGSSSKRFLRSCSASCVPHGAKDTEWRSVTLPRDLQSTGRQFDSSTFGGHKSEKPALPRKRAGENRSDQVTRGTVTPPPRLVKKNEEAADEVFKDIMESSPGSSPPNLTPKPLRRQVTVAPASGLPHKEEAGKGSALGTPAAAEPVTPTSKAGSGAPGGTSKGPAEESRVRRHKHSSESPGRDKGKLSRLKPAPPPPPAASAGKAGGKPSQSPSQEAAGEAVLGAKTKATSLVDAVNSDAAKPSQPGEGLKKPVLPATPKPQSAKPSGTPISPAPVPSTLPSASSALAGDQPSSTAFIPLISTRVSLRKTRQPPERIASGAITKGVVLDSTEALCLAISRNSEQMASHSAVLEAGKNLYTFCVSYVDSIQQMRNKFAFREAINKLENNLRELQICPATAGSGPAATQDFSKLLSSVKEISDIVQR", "conditions": "Compound concentration 1000.0 nM"}, "[16]": {"biological_target": "Serine/threonine-protein kinase ICK (Homo sapiens) (UniProt Q9UPZ9)", "conditions": "Compound concentration 1000.0 nM"}, "[17]": {"system": "Phosphatidylinositol 4,5-bisphosphate 3-kinase catalytic subunit alpha isoform (Homo sapiens), P42336 [H1047L]", "conditions": "Compound concentration 1000.0 nM"}, "[18]": {"system": "Receptor-type tyrosine-protein kinase FLT3 (Homo sapiens), P36888 [R834Q]", "conditions": "Compound concentration 1000.0 nM"}, "[19]": {"biological_target": "Serine/threonine-protein kinase Nek6 (Homo sapiens) (UniProt Q9HC98)", "conditions": "Compound concentration 1000.0 nM"}, "[20]": {"system": "Mast/stem cell growth factor receptor Kit (Homo sapiens), P10721 [V559D,T670I]", "conditions": "Compound concentration 1000.0 nM"}, "[21]": {"biological_target": "Cyclin-dependent kinase 18 (Homo sapiens) (UniProt Q07002)", "conditions": "Compound concentration 1000.0 nM"}, "[22]": {"biological_target": "Ankyrin repeat and protein kinase domain-containing protein 1 (Homo sapiens) (UniProt Q8NFD2)", "conditions": "Compound concentration 1000.0 nM"}, "[23]": {"biological_target": "Vascular endothelial growth factor receptor 1 (Homo sapiens) (UniProt P17948)", "conditions": "Compound concentration 1000.0 nM"}, "[24]": {"biological_target": "Cyclin-dependent kinase-like 2 (Homo sapiens) (UniProt Q92772)", "conditions": "Compound concentration 1000.0 nM"}, "[25]": {"system": "Mast/stem cell growth factor receptor Kit (Homo sapiens), P10721 [D816H]", "conditions": "Compound concentration 1000.0 nM"}, "[26]": {"biological_target": "Serine/threonine-protein kinase Nek1 (Homo sapiens) (UniProt Q96PY6)", "conditions": "Compound concentration 1000.0 nM"}, "[27]": {"biological_target": "Peripheral plasma membrane protein CASK (Homo sapiens) (UniProt O14936)", "sequence (O14936 whole entry)": "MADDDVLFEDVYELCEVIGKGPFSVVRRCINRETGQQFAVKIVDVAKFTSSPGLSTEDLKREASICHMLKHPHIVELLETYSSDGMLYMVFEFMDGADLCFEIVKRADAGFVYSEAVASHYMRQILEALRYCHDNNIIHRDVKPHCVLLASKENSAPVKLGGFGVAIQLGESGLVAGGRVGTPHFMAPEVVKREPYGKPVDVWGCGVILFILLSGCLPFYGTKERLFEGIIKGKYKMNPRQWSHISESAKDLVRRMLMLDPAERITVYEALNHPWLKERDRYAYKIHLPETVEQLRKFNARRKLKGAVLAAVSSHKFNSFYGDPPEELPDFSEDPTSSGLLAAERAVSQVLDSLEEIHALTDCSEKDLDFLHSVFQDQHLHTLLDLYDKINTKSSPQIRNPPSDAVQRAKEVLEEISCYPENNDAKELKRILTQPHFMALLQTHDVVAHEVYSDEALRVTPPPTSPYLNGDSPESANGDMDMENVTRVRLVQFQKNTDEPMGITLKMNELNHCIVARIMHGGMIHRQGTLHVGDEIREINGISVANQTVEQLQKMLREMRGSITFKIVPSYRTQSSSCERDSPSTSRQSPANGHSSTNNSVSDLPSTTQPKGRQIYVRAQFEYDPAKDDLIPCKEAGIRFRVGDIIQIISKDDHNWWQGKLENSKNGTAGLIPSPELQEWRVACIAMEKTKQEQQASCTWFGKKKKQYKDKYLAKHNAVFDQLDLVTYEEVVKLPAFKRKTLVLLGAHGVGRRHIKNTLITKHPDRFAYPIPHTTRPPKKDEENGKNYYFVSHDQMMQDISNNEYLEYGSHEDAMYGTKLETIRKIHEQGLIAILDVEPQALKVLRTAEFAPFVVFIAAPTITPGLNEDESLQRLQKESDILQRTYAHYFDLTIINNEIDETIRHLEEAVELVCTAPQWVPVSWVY", "conditions": "Compound concentration 1000.0 nM"}, "[28]": {"biological_target": "Myosin light chain kinase 2, skeletal/cardiac muscle (Homo sapiens) (UniProt Q9H1R3)", "conditions": "Compound concentration 1000.0 nM"}, "[29]": {"biological_target": "MAP kinase-interacting serine/threonine-protein kinase 1 (Homo sapiens) (UniProt Q9BUB5)", "conditions": "Compound concentration 1000.0 nM"}, "[30]": {"biological_target": "Dual specificity mitogen-activated protein kinase kinase 4 (Homo sapiens) (UniProt P45985)", "conditions": "Compound concentration 1000.0 nM"}, "[31]": {"biological_target": "Serine/threonine-protein kinase MRCK gamma (Homo sapiens) (UniProt Q6DT37)", "conditions": "Compound concentration 1000.0 nM"}, "[32]": {"biological_target": "Tyrosine-protein kinase ABL1 (Homo sapiens) (UniProt P00519)", "sequence (P00519 whole entry)": "as the sequence (P00519 whole entry F317L) above, with L317F counted along it", "conditions": "Compound concentration 1000.0 nM"}, "[33]": {"biological_target": "Macrophage colony-stimulating factor 1 receptor (Homo sapiens) (UniProt P07333)", "conditions": "Compound concentration 1000.0 nM"}, "[34]": {"biological_target": "Receptor-interacting serine/threonine-protein kinase 4 (Homo sapiens) (UniProt P57078)", "sequence (P57078 whole entry)": "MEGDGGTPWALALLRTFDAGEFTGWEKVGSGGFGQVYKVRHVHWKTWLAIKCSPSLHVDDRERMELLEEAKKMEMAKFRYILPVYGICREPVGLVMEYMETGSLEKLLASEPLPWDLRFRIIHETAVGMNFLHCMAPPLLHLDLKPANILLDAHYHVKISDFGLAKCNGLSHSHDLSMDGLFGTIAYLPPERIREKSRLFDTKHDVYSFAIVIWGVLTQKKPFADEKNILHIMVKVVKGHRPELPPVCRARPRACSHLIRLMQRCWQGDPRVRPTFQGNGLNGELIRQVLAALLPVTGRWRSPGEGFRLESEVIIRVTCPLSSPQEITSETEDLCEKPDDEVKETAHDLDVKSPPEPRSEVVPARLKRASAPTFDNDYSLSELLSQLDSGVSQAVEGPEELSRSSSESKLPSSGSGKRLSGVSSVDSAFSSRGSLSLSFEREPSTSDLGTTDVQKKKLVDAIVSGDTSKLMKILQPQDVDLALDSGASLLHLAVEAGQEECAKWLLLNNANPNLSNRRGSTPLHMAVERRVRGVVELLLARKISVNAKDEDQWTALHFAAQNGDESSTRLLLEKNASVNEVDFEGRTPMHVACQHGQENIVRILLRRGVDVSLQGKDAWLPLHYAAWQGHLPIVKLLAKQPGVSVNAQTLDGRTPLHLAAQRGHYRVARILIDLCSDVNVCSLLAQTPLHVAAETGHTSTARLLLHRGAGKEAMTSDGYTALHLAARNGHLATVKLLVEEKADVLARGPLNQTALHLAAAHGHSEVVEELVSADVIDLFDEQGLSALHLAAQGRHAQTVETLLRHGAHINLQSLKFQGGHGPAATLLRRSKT", "conditions": "Compound concentration 1000.0 nM"}, "[35]": {"biological_target": "Serine/threonine-protein kinase MRCK beta (Homo sapiens) (UniProt Q9Y5S2)", "conditions": "Compound concentration 1000.0 nM"}, "[36]": {"biological_target": "Serine/threonine-protein kinase 10 (Homo sapiens) (UniProt O94804)", "conditions": "Compound concentration 1000.0 nM"}, "[37]": {"biological_target": "Serine/threonine-protein kinase PLK3 (Homo sapiens) (UniProt Q9H4B4)", "conditions": "Compound concentration 1000.0 nM"}, "[38]": {"biological_target": "Ribosomal protein S6 kinase alpha-3 (Homo sapiens) (UniProt P51812)", "conditions": "Compound concentration 1000.0 nM"}, "[39]": {"biological_target": "Interleukin-1 receptor-associated kinase 1 (Homo sapiens) (UniProt P51617)", "conditions": "Compound concentration 1000.0 nM"}, "[40]": {"system": "Proto-oncogene tyrosine-protein kinase receptor Ret (Homo sapiens), P07949 [V804M]", "conditions": "Compound concentration 1000.0 nM"}, "[41]": {"biological_target": "Mitogen-activated protein kinase kinase kinase kinase 2 (Homo sapiens) (UniProt Q12851)", "conditions": "Compound concentration 1000.0 nM"}, "[42]": {"biological_target": "Mitogen-activated protein kinase kinase kinase 7 (Homo sapiens) (UniProt O43318)", "conditions": "Compound concentration 1000.0 nM"}, "[43]": {"biological_target": "Glycogen synthase kinase-3 beta (Homo sapiens) (UniProt P49841)", "sequence (P49841 whole entry, looked up)": "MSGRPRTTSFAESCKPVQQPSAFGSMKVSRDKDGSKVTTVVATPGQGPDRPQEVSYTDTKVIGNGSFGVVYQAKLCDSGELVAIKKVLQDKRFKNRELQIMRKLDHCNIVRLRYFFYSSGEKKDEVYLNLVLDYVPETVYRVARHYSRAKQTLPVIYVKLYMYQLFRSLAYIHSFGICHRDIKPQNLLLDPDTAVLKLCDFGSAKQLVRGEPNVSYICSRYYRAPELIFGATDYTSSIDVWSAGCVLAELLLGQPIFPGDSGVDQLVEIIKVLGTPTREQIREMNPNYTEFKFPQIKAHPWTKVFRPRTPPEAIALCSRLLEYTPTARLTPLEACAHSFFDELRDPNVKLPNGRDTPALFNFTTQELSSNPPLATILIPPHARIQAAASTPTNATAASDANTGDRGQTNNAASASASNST", "conditions": "Compound concentration 1000.0 nM"}, "[44]": {"biological_target": "Ribosomal protein S6 kinase alpha-4 (Homo sapiens) (UniProt O75676)", "conditions": "Compound concentration 1000.0 nM"}},
  "data": [
    {"smiles": "C[C@H](c1ccc(F)cc1)N(Cc1cccc(C(=O)O)c1)C(=O)c1cnc2ccccc2c1", "note": "[PF-05105679]", "values": [
      {"measurement": "residual activity", "setting": "[1]", "value": 100, "unit": "%"},
      {"measurement": "residual activity", "setting": "[2]", "value": 100, "unit": "%"},
      {"measurement": "residual activity", "setting": "[3]", "value": 100, "unit": "%"},
      {"measurement": "residual activity", "setting": "[4]", "value": 84, "unit": "%"},
      {"measurement": "inhibition", "setting": "Rattus norvegicus", "value": 70, "unit": "%"},
      {"measurement": "residual activity", "setting": "[5]", "value": 100, "unit": "%"},
      {"measurement": "inhibition", "setting": "[6]", "value": 22, "unit": "%"},
      {"measurement": "residual activity", "setting": "[7]", "value": 100, "unit": "%"},
      {"measurement": "inhibition", "setting": "[8]", "value": 27.3, "unit": "%"},
      {"measurement": "residual activity", "setting": "[9]", "value": 100, "unit": "%"},
      {"measurement": "residual activity", "setting": "[10]", "value": 100, "unit": "%"},
      {"measurement": "residual activity", "setting": "[11]", "value": 100, "unit": "%"},
      {"measurement": "residual activity", "setting": "[12]", "value": 100, "unit": "%"},
      {"measurement": "residual activity", "setting": "[13]", "value": 100, "unit": "%"},
      {"measurement": "residual activity", "setting": "[14]", "value": 96, "unit": "%"},
      {"measurement": "residual activity", "setting": "[15]", "value": 99, "unit": "%"},
      {"measurement": "residual activity", "setting": "[16]", "value": 100, "unit": "%"},
      {"measurement": "residual activity", "setting": "[17]", "value": 100, "unit": "%"},
      {"measurement": "residual activity", "setting": "[18]", "value": 100, "unit": "%"},
      {"measurement": "residual activity", "setting": "[19]", "value": 92, "unit": "%"},
      {"measurement": "residual activity", "setting": "[20]", "value": 98, "unit": "%"},
      {"measurement": "residual activity", "setting": "[21]", "value": 100, "unit": "%"},
      {"measurement": "residual activity", "setting": "[22]", "value": 81, "unit": "%"},
      {"measurement": "residual activity", "setting": "[23]", "value": 100, "unit": "%"},
      {"measurement": "residual activity", "setting": "[24]", "value": 100, "unit": "%"},
      {"measurement": "residual activity", "setting": "[25]", "value": 100, "unit": "%"},
      {"measurement": "residual activity", "setting": "[26]", "value": 100, "unit": "%"},
      {"measurement": "residual activity", "setting": "[27]", "value": 86, "unit": "%"},
      {"measurement": "residual activity", "setting": "[28]", "value": 100, "unit": "%"},
      {"measurement": "residual activity", "setting": "[29]", "value": 100, "unit": "%"},
      {"measurement": "residual activity", "setting": "[30]", "value": 100, "unit": "%"},
      {"measurement": "residual activity", "setting": "[31]", "value": 100, "unit": "%"},
      {"measurement": "residual activity", "setting": "[32]", "value": 100, "unit": "%"},
      {"measurement": "residual activity", "setting": "[33]", "value": 65, "unit": "%"},
      {"measurement": "residual activity", "setting": "[34]", "value": 100, "unit": "%"},
      {"measurement": "residual activity", "setting": "[35]", "value": 94, "unit": "%"},
      {"measurement": "residual activity", "setting": "[36]", "value": 89, "unit": "%"},
      {"measurement": "residual activity", "setting": "[37]", "value": 100, "unit": "%"},
      {"measurement": "residual activity", "setting": "[38]", "value": 89, "unit": "%"},
      {"measurement": "residual activity", "setting": "[39]", "value": 89, "unit": "%"},
      {"measurement": "residual activity", "setting": "[40]", "value": 100, "unit": "%"},
      {"measurement": "residual activity", "setting": "[41]", "value": 100, "unit": "%"},
      {"measurement": "residual activity", "setting": "[42]", "value": 100, "unit": "%"},
      {"measurement": "residual activity", "setting": "[43]", "value": 100, "unit": "%"},
      {"measurement": "residual activity", "setting": "[44]", "value": 100, "unit": "%"}
    ]}
  ]
}
